These results are taken from patent US10441562B2, “Aromatic farnesyl compound and application thereof” (INSTITUTE OF MICROBIOLOGY, CHINESE ACADEMY OF SCIENCES, priority 2015, dated 2019).

Holding throughout (type): biochemical
The target in test [1] is T1, α-glucosidase (Saccharomyces cerevisiae, UniProt P53341).
T1 construct: purchased Sigma Corporation G5003
Briefly: α-glucosidase inhibitory activity test in vitro. Here is the method: Add 25 μL α-glucosidase water solution (0.2 U/mL) and 175 μL phosphate buffer (50 mM, pH 7.0) into 25 μL different concentration of the above test solutions. The mixed solution is standed for 10 min at room temperature, and then 25 μL 4-nitrophenyl-α-D-glucopyranoside water solution (2.5 mM) is added into the mixed solution. After the solution is incubated at 37 °C for 30 min and centrifuged at 5000 rpm for 5 minutes, 150 uL supernatant is added into 96-well plates and the absorbance is detected at 405 nm.
Blank group: the test solution is replaced by 25 μL phosphate buffer (50 mM, pH 7.0); blank control group: the test solution is replaced by 25 μL phosphate buffer (50 mM, pH 7.0), meanwhile α-glucosidase water solution is replaced by 25 μL phosphate buffer (50 mM, pH 7.0); sample control group: α-glucosidase water solution is replaced by 25 μL phosphate buffer (50 mM, pH 7.0).
(§1) Repeat each of the above experiment groups for 3 times, and then average the results.
IC50=[CL(IH−50)+CH(50−IL)]/(IH−IL) CL: low concentration value; CH: high concentration value; IH: inhibition rate in high concentration; IL: inhibition rate in low concentration

The target in test [2] is T2, dipeptidyl peptidase-4 (Homo sapiens, UniProt P27487).
T2 construct: purchased
T2 sequence (P27487 whole entry, species assumed): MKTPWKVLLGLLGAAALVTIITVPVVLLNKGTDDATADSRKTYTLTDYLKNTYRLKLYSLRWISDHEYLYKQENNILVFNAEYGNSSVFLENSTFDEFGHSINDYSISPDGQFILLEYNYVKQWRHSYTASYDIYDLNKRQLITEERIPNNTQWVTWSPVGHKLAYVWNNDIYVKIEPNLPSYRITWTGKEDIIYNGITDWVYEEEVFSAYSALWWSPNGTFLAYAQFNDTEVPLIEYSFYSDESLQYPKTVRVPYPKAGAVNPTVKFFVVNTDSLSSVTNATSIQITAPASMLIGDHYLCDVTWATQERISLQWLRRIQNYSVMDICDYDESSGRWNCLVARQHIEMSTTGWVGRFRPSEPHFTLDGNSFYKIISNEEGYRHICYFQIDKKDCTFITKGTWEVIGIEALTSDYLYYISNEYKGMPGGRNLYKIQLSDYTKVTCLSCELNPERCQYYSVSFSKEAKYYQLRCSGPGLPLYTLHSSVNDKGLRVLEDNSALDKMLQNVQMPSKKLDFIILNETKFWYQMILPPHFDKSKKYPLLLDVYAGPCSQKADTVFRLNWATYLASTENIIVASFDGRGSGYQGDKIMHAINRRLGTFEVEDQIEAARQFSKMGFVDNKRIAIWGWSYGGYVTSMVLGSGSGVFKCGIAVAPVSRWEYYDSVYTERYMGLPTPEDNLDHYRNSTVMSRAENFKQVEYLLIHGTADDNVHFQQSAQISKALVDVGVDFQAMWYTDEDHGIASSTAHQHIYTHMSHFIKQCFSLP
The test is described as follows: dipeptidyl peptidase-4 inhibitory activity test in vitro (DPP-4 inhibitor screening kit). The source says: The above compounds are detected by DPP-4 inhibitor screening kit.

Test [3] concerns the target T3, protein tyrosine phosphatase 1B (PTP-1B) (Homo sapiens, UniProt P18031).
T3 sequence (P18031 1-435): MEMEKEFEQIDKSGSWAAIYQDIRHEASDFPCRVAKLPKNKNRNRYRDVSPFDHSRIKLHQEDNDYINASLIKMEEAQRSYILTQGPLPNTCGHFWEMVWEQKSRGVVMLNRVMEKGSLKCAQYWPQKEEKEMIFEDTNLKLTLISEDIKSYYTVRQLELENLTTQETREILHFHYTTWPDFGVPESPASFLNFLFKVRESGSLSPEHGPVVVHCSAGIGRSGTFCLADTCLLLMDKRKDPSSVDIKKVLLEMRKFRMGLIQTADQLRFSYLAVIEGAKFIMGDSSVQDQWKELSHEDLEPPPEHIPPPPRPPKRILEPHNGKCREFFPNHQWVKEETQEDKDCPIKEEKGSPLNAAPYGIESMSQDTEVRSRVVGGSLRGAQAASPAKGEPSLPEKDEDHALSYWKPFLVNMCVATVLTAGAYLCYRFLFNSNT
The test is described as follows: PTP-1B inhibitory activity test in vitro. Here is the method:
Experimental procedure: the following reagents are added into 96-well plates in sequence and the mixture ratios of different groups are as followings: Test group: 50 μL compound solution+50 μL 170 μg/mL PTP-1B solution […] Blank group: 50 μL buffer solution+50 μL 170 μg/mL PTP-1B solution Background group: 50 μL compound solution+50 μL buffer solution After adding the reagents, the 96-well plate is […] for 10 min at room temperature to make the compound and the enzyme react completely. Add 50 μL 1 mM pNPP solution which is used as substrate and incubate the mixed solution at 37 °C for 30 min. Then add 50 μL 3M NaOH into each well of the plate to stop the reaction and the optical density is detected at […].

For test [4], the target named is aldose reductase (Homo sapiens, UniProt P15121). Briefly: aldose reductase inhibitory activity test in vitro. Here is the method: Experimental procedure: the following reagents are added into 96-well plates in sequence and the mixture ratios of different groups are as followings:
Test group: 10 μL compound solution+25 μL (0.1 mM) NADPH solution+25 μL PBS buffer solution+15 μL aldose reductase diluent
Blank group: 25 μL (0.1 mM) NADPH solution+35 μL PBS buffer solution+15 μL aldose reductase diluent
Background group: 25 μL (0.1 mM) NADPH solution+60 μL PBS buffer solution+15 μL aldose reductase diluent
After adding the reagents, the 96-well plate is standed for 10 min at room temperature to make the compound and the enzyme react completely. Add 25 μL 10 mM D, L glyceraldehyde solution which is used as substrate into the groups except for background group, and incubate the solution at 37 °C for 30 min. Then detect the optical density of each well at 340 nm.

Test [5] has as its target T4, HMG-CoA reductase (Homo sapiens, UniProt P04035).
T4 sequence (P04035 426-888 limits assumed): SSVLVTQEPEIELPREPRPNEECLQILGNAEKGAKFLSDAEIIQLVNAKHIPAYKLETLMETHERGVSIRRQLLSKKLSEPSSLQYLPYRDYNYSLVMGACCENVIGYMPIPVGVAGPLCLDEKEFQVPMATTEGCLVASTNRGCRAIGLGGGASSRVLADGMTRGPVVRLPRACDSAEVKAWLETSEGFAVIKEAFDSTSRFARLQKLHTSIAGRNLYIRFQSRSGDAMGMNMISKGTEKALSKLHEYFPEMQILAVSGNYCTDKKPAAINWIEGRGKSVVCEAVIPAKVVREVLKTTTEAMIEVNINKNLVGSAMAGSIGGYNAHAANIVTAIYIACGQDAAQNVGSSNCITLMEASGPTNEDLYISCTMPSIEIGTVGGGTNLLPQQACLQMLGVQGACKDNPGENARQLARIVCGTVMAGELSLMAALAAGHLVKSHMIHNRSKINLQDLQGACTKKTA
Briefly: HMG-CoA reductase inhibitory activity test in vitro. Here is the method:
Add 25 μL HMG-CoA reductase water solution (0.2 U/mL), 25 μL NADPH water solution (0.2 U/mL) and 24 μL phosphate buffer (50 mM, pH 7.0) into 1 μL different concentration of the above test solution. The mixed solution is standed for 10 min at room temperature, and then 25 μL HMG-CoA is added into the mixed solution. After the solution is incubated at 37∞ for 30 min and centrifuged at 5000 rpm for 5 minutes, 80 uL supernatant is added into 96-well plates and the absorbance is detected at 550 nm.
as §1

Setting [6] is: read-out: α-glucosidase inhibitory activity (IC50).

Read-outs that look alike come from different tables or passages of the source.

T1 sequence (P53341 whole entry): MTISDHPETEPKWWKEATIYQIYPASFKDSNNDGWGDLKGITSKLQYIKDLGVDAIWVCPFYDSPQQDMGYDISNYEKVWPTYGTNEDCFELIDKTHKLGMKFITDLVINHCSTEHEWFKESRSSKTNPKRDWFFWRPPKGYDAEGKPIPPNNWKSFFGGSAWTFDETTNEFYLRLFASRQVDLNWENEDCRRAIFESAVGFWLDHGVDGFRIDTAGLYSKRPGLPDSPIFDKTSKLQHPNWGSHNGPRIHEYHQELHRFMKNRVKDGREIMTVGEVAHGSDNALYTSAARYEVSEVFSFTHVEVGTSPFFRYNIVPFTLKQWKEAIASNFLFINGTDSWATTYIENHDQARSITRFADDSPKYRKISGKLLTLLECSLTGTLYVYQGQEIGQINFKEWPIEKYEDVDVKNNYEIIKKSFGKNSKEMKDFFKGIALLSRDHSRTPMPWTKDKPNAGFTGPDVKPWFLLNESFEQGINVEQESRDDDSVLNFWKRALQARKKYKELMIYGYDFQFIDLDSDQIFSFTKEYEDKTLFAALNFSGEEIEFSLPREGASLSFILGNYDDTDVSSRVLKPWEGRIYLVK

Turning to `COC1(c2cc(O)ccc2O)C=C(CC/C=C(\C)CCC=C(C)C)C(=O)O1` (stereo not shown) [S31, (E)-5-(2,5-dihydroxyphenyl)-3-(4,8-dimethylnona-3,7-dien-1-yl)-5-meth oxyfuran-2(5H)-one], the IC50 (in general, the concentration that inhibits the measured activity by half) in test [1] was 3.23 µM; in test [2] it was 15.4 µM; in test [3] it was 15.4 µM; in test [4], 87.6 µM; in test [5], 32.3 µM.
For the compound `CC(C)=CCC/C(C)=C/CCC1=C[C@H](c2ccc(C(C)C)cc2)OC1=O` [S8, (R,E)-3-(4,8-dimethylnona-3,7-dien-1-yl)-5-(4-isopropylphenyl)furan-2(5H)-one], the IC50 in test [1] (setting [6]) is 56.2 µM; in test [2], 9.4 µM; in test [3] it was 12.7 µM; in test [4], 84.4 µM; in test [5], > 100 µM.
For `COCOc1ccccc1[C@H]1C=C(CC/C=C(\C)CCC=C(C)C)C(=O)O1` [S3], in that order: 8.65 µM, 14.5 µM, 7.8 µM, 38.3 µM and 8.9 µM.
For the compound `CC(C)=CCC/C(C)=C/CCC1=C[C@@H](c2ccc(C)cc2)OC1=O` [S21, (S,E)-3-(4,8-dimethylnona-3,7-dien-1-yl)-5-(p-tolyl)furan-2(5H)-one], the IC50 in test [1] (setting [6]) was 1.03 µM; in test [2], 16.5 µM; in test [3], 5.8 µM; in test [4] it was 55.1 µM; in test [5], 12.5 µM.
In the same order, the values of `CC(C)=CCC/C(C)=C/CCC1=C[C@H](c2ccc3ccccc3c2)OC1=O` [S2] are 7.4 µM, 12.5 µM, 13.1 µM, 19.8 µM and 49.8 µM.
